Measured values reported in article PMC10374545, “A small molecule inhibitor of PTP1B and PTPN2 enhances T cell anti-tumor immunity” (Nature Communications, 2023).
“And” between values parts separate entries of the source, which are not always exact repeats. Equal entries are not always repeated.

Legend:
MC38 colon tumors = experiment: MC38 colon tumor growth in C57BL/6 mice; type: in vivo, mouse
Procedure: Male or female mice were injected subcutaneously with 5 × 10^5 MC38 tumor cells resuspended in 100 μl D-PBS into the flank. Alternatively, female mice were injected orthotopically with 5 × 10^5 AT3 or AT3-OVA or PTPN2-deleted AT3 or AT3-OVA tumor cells resuspended in 20 μl D-PBS into the fourth mammary fat pad. Tumor sizes were measured in two dimensions (mm^2) using electronic callipers two to three times per week as soon as tumors were palpable (20–25 mm^2).

AT3 mammary tumors = experiment: Tumor-infiltrating lymphocytes in AT3 tumors, Compound 182 with α-PD-1; type: in vivo, mouse; set-up: CD4 EM / CD8 EM / IFNg+ TNF+ / GRZMB / MDSCs / NK cells / Tregs: unit not given here
Procedure: In addition, mice received four intraperitoneal injections of α-PD-1 (200 μg in 200 μl D-PBS; clone RMP1-14), or rat IgG2a isotype control (100 μg in 200 μl D-PBS, Bio X Cell) twice per week.
Tumor-bearing mice were sacrificed and tumors were excised and digested at 37 °C for 30 min using a cocktail of 1 mg/ml collagenase type IV (Worthington Biochemicals) and 0.02 mg/ml DNase I (Sigma-Aldrich) in DMEM supplemented with 2% (v/v) FBS. Cells were passed through a 70 μm cell strainer (BD Biosciences) twice and processed for flow cytometry. For assessing T cell activation, cells were surface stained with fluorophore-conjugated antibodies to CD62L, CD44, PD-1, and TIM-3. For the assessment of NK cells, B cells, myeloid-derived suppressor cells (MDSCs), dendritic cells (DCs), and tumor-associated macrophages, cells were surface stained with fluorophore-conjugated antibodies to NK1.1, TCRβ, CD19, CD11b, CD11c, F4/80, Ly6C and Ly6G. For the detection of intracellular cytokines TNF and IFNγ, T cells were stimulated with PMA (20 ng/ml; Sigma-Aldrich) and ionomycin (1 μg/ml; Sigma-Aldrich) in the presence of GolgiPlug™ and GolgiStop™ (BD Biosciences) for 4 h at 37 °C in complete T cell medium. For the intracellular detection of granzyme B, cells were processed untreated without the addition of BD GolgiPlug™ and BD GolgiStop™.

[1] = tested on: STAT-5 Y694 phosphorylation in CD8+ OT-I cells; experiment: Basal and IL-2-induced STAT-5 Y694 phosphorylation in activated OT-I cells; type: cell-based, mouse; conditions: for p-STAT-5 MFI, single replicates: 1 μM, IL-2 5 ng/ml, Fig. 2F raw data, listed as CMP-182; for p-STAT-5, group mean (Mean 2): IL-2 5 ng, N 6
Procedure: For assessing IL-2-induced STAT-5 Y694 phosphorylation (p-STAT-5) in activated OT-I cells, single cell suspension of OT-I cells from the lymph nodes of OT-I;Ptpn2^fl/fl mice were stimulated with 1 nM […] (N4) for 16 h. […] Reactions were terminated by washing the cells with ice-cold PBS and then stained with fixable viable dye and fluorophore-conjugated antibodies to CD8 on ice for 15 min. Cells were then washed and fixed with 4% (w/w) paraformaldehyde (BD Cytofix™Fixation Buffer) at room temperature for 30 min and permeabilised with 90% (v/v) methanol at −20 °C for 30 min. Permeabilised cells were incubated with a rabbit antibody specific for p-STAT-5 (p-STAT-5; D47E7, Cell Signaling Technology) for 60 min at room temperature, washed thrice with PBS and then stained with goat anti-rabbit IgG (H + L) F(ab’)2 fragment conjugated to Alexa Fluor 647 (Jackson ImmunoResearch Labs; West Grove, PA) to monitor for p-STAT-5 in CD8^+ OT-I cells by flow cytometry.

[2] = Figure 9D, tumour-infiltrating cells, AT-3, individual mice, listed as CMP-182
[3] = Figure 9E, AT-3, individual mice, listed as CMP-182
[4] = Figure 9F, tumour-infiltrating cells, AT-3, individual mice, listed as CMP-182

## CC(C)(O)CCOc1ccc2cc(O)c(N3CC(=O)NS3(=O)=O)c(F)c2c1 [Compound 182, 5-(1-Fluoro-3-hydroxy-7-(3-hydroxy-3-methylbutoxy)naphthalen-2-yl)−1,2,5-thiadiazolidin-3-one 1,1-dioxide]
MC38 colon tumors; 10 mg, day 20 post injection, listed as CMP-182, in mm2
  Tumour growth MC38, individual mice: 38.76 and 109.2 and 38.35 and 60.8 and 61.62
MC38 colon tumors; 10 mg/kg i.v. every 2 days
  growth of subcutaneous MC38 colorectal tumors: repressed the growth
MC38 colon tumors; Figure 4A (MC38), CMP-182 10 mg, n=5, line printed as AT-3, in mm2
  Tumour size, mean over all time points: 42.78
MC38 colon tumors; MC38 tumours, CMP-182 10 mg, Figure 4A
  Tumour weights, median: 243.0, n=5
MC38 colon tumors; MC38 tumours, CMP-182 10 mg, n=5, time point 7, Figure 4A, in mm2
  Tumour size, Predicted (LS) mean 2: 16.8
MC38 colon tumors; MC38 tumours, CMP-182 10 mg, n=5, time point 10, Figure 4A, in mm2
  Tumour size, Predicted (LS) mean 2: 28.12
MC38 colon tumors; MC38 tumours, CMP-182 10 mg, n=5, time point 13, Figure 4A, in mm2
  Tumour size, Predicted (LS) mean 2: 39.43
MC38 colon tumors; MC38 tumours, CMP-182 10 mg, n=5, time point 15, Figure 4A, in mm2
  Tumour size, Predicted (LS) mean 2: 31.29
MC38 colon tumors; MC38 tumours, CMP-182 10 mg, n=5, time point 16, Figure 4A, in mm2
  Tumour size, Predicted (LS) mean 2: 58.07
MC38 colon tumors; MC38 tumours, CMP-182 10 mg, n=5, time point 18, Figure 4A, in mm2
  Tumour size, Predicted (LS) mean 2: 64.02
MC38 colon tumors; MC38 tumours, CMP-182 10 mg, n=5, time point 20, Figure 4A, in mm2
  Tumour size, Predicted (LS) mean 2: 61.75
AT3 mammary tumors; Compound 182 10 mg/kg i.v. + α-PD-1 200 μg i.p.
  recruitment of CD4+ and CD8+ effector/memory T cells, combination therapy: synergistic recruitment
AT3 mammary tumors; [2]
  CD4 EM: 43342.4 and 57673.5 and 79430.7 and 97780.3 and 96326.3 and 45818.5
  CD8 EM: 103472 and 141360 and 229947 and 172459 and 191087 and 113353
AT3 mammary tumors; [3]
  GRZMB: 24.8 and 18.9 and 21.2 and 17 and 24 and 19.1
  PD-1 TIM-3: 32.5 and 47.7 and 47.8 and 31.8 and 39.5 and 41.5
AT3 mammary tumors; Figure 9E, first IFNg+ TNF+ panel, AT-3, individual mice, listed as CMP-182
  IFNg+ TNF+: 7.74 and 4.13 and 7.71 and 10.5 and 16.5 and 3.24
AT3 mammary tumors; Figure 9E, second IFNg+ TNF+ panel, AT-3, individual mice, listed as CMP-182
  IFNg+ TNF+: 19 and 26.4 and 15.4 and 31.9 and 43.5 and 25.3
AT3 mammary tumors; [4]
  MDSCs: 15172.6 and 12646.1 and 18636.2 and 29520.3 and 27688.9 and 13342.8
  NK cells: 41998.7 and 24391.4 and 32687 and 55002.2 and 59698.1 and 23635.5
  Tregs: 32249.8 and 40798.3 and 43823.5 and 55176.6 and 44430.4 and 6773.49
[1]; time 0
  p-STAT-5 MFI, single replicates: 5942 and 5539 and 8398 and 8753 and 4540 and 4913
[1]; time 5
  p-STAT-5 MFI, single replicates: 14341 and 15725 and 15901 and 18555 and 14928 and 16788
[1]; time 15
  p-STAT-5 MFI, single replicates: 16676 and 18523 and 19580 and 20940 and 16523 and 19213
[1]; time 30
  p-STAT-5 MFI, single replicates: 16027 and 18696 and 19133 and 19342 and 15170 and 18785
[1]; time 60
  p-STAT-5 MFI, single replicates: 13163 and 13881 and 14770 and 14670 and 10937 and 14331
[1]; time 120
  p-STAT-5 MFI, single replicates: 10820 and 12152 and 10493 and 12920 and 10327 and 12862
[1]; CD8+ T cells
  basal and IL-2-induced STAT-5 Y694 phosphorylation (p-STAT-5): enhanced
[1]; CD8, IL-2 5 ng, mean over all times, two-way ANOVA, Fig. 2F
  p-STAT-5, column mean: 14007
[1]; Row 1 (time 0), Fig. 2F
  p-STAT-5, group mean (Mean 2): 6348
[1]; Row 2 (time 5), Fig. 2F
  p-STAT-5, group mean (Mean 2): 16040
[1]; Row 3 (time 15), Fig. 2F
  p-STAT-5, group mean (Mean 2): 18576
[1]; Row 4 (time 30), Fig. 2F
  p-STAT-5, group mean (Mean 2): 17859
[1]; Row 5 (time 60), Fig. 2F
  p-STAT-5, group mean (Mean 2): 13625
[1]; Row 6 (time 120), Fig. 2F
  p-STAT-5, group mean (Mean 2): 11596
[1]; N4 1 nM 16 h, then 1 μM 1 h, no IL-2, Fig. 2E raw data, listed as WT+I
  pSTAT5, single replicates: 60.1 and 62.9 and 57.6 and 60.3
[1]; WT+I vs. WT, 4 pairs, Fig. 2E
  pSTAT5%, mean of differences (B - A): 12.98
